# Earlier results as cited in patent US6514544B2, “Beverage for increasing the body's capacity to break down alcohol and method thereof” (JHS-Privatstiftung, priority 1998, dated 2003).
smiles,measurement,setting,value
"CCO [alcohol, ethanol]",share of the reabsorbed alcohol excreted via the kidneys,approximately,1-2%
same,share of the reabsorbed alcohol excreted via the lungs,approximately,2-3%
same,amount directly glucuronated,slight amounts,0.5%
